In PubChem BioAssay (NCI):
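Cultured in 96-well plates, cells were exposed to test compound for 48 hours across five concentrations. TGI: concentration producing complete growth inhibition.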

Key:
Assay in all cases: inhibition of tumour cell growth, NCI panel, 48 h
786-0 renal = system: 786-0 renal
A498 renal = system: A498 renal
A549 NSCLC = system: A549 NSCLC
ACHN renal = system: ACHN renal
CAKI-1 renal = system: CAKI-1 renal
CCRF-CEM leukemia = system: CCRF-CEM leukemia
COLO 205 colon = system: COLO 205 colon
DU-145 prostate = system: DU-145 prostate
EKVX NSCLC = system: EKVX NSCLC
HCC-2998 colon = system: HCC-2998 colon
HCT-116 colon = system: HCT-116 colon
HCT-15 colon = system: HCT-15 colon
HL-60(TB) leukemia = system: HL-60(TB) leukemia
HOP-62 NSCLC = system: HOP-62 NSCLC
HOP-92 NSCLC = system: HOP-92 NSCLC
HS 578T breast = system: HS 578T breast
HT29 colon = system: HT29 colon
IGROV1 ovarian = system: IGROV1 ovarian
K-562 leukemia = system: K-562 leukemia
KM12 colon = system: KM12 colon
LOX IMVI melanoma = system: LOX IMVI melanoma
M14 melanoma = system: M14 melanoma
MALME-3M melanoma = system: MALME-3M melanoma
MCF7 breast = system: MCF7 breast
MDA-MB-231 breast = system: MDA-MB-231 breast
MDA-MB-435 = system: MDA-MB-435
MDA-N = system: MDA-N
MOLT-4 leukemia = system: MOLT-4 leukemia
NCI-H226 lung = system: NCI-H226 lung
NCI-H23 lung = system: NCI-H23 lung
NCI-H460 lung = system: NCI-H460 lung
NCI-H522 lung = system: NCI-H522 lung
NCI/ADR-RES ovarian = system: NCI/ADR-RES ovarian
OVCAR-3 ovarian = system: OVCAR-3 ovarian
OVCAR-4 ovarian = system: OVCAR-4 ovarian
OVCAR-5 ovarian = system: OVCAR-5 ovarian
OVCAR-8 ovarian = system: OVCAR-8 ovarian
PC-3 prostate = system: PC-3 prostate
RPMI-8226 leukemia = system: RPMI-8226 leukemia
RXF 393 renal = system: RXF 393 renal
SF-268 CNS = system: SF-268 CNS
SF-295 CNS = system: SF-295 CNS
SF-539 CNS = system: SF-539 CNS
SK-MEL-28 melanoma = system: SK-MEL-28 melanoma
SK-MEL-5 melanoma = system: SK-MEL-5 melanoma
SK-OV-3 ovarian = system: SK-OV-3 ovarian
SN12C renal = system: SN12C renal
SNB-19 CNS = system: SNB-19 CNS
SNB-75 CNS = system: SNB-75 CNS
SR leukemia = system: SR leukemia
SW-620 colon = system: SW-620 colon
T-47D breast = system: T-47D breast
TK-10 renal = system: TK-10 renal
U251 CNS = system: U251 CNS
UACC-257 melanoma = system: UACC-257 melanoma
UACC-62 melanoma = system: UACC-62 melanoma
BT-549 breast = system: BT-549 breast
SK-MEL-2 melanoma = system: SK-MEL-2 melanoma
UO-31 renal = system: UO-31 renal

Measured: TGI

COc1ccc(NC(=O)CSc2nc(C)nc3c2sc(=S)n3-c2ccccc2)cc1
9.29 µM: OVCAR-4 ovarian
4.97 µM: SF-539 CNS
8.21 µM: SNB-75 CNS
not listed: BT-549 breast | SK-MEL-2 melanoma | UO-31 renal
> 10 µM: all other assays above

Cc1ccc(N=NC(=O)NNc2ccc(C)cc2Br)c(Br)c1
86.6 µM: TK-10 renal
48.3 µM: MDA-N
36.1 µM: UACC-62 melanoma
42.4 µM: 786-0 renal
21 µM: CCRF-CEM leukemia
52.3 µM: A498 renal
62.8 µM: NCI-H226 lung
33.9 µM: SK-MEL-5 melanoma
63.8 µM: IGROV1 ovarian
89.3 µM: BT-549 breast
55.3 µM: NCI-H522 lung
34.5 µM: LOX IMVI melanoma
32 µM: SK-MEL-2 melanoma
41.1 µM: HOP-62 NSCLC
41.2 µM: OVCAR-3 ovarian
89.1 µM: ACHN renal
63 µM: HL-60(TB) leukemia
72 µM: M14 melanoma
74 µM: DU-145 prostate
24.6 µM: HCT-116 colon
97.2 µM: SF-268 CNS
51.2 µM: SN12C renal
41.3 µM: MCF7 breast
36.4 µM: MALME-3M melanoma
72.5 µM: PC-3 prostate
62 µM: OVCAR-8 ovarian
51.5 µM: K-562 leukemia
90.1 µM: SR leukemia
68.4 µM: OVCAR-5 ovarian
79.8 µM: UACC-257 melanoma
> 100 µM: A549 NSCLC | CAKI-1 renal | HT29 colon | MDA-MB-231 breast | MDA-MB-435 | NCI-H23 lung | OVCAR-4 ovarian | SNB-19 CNS | SNB-75 CNS | SW-620 colon | T-47D breast
77.2 µM: UO-31 renal
47.4 µM: SK-MEL-28 melanoma
47.3 µM: NCI-H460 lung
31.3 µM: HCC-2998 colon
34.9 µM: U251 CNS
65.3 µM: HCT-15 colon
66.5 µM: RPMI-8226 leukemia
60.4 µM: MOLT-4 leukemia

CCOc1cc(CC[N+](C)(C)C)c2c(ccc3ccc(OC)c(OC)c32)c1OC
not listed: A498 renal | CCRF-CEM leukemia | HCT-15 colon | HL-60(TB) leukemia | HOP-62 NSCLC | HS 578T breast | K-562 leukemia | KM12 colon | LOX IMVI melanoma | MCF7 breast | MOLT-4 leukemia | NCI-H226 lung | NCI-H23 lung | NCI-H460 lung | OVCAR-4 ovarian | OVCAR-5 ovarian | RXF 393 renal | SF-539 CNS | TK-10 renal | UACC-257 melanoma | SK-MEL-2 melanoma
> 100 µM: all other assays above

CN(C)C12C=CC=CC3=C(c4ccccc4)C(c4ccccc4)=C(c4ccccc4)C31c1ccccc1C2 (centres undefined)
not listed: A498 renal | CAKI-1 renal | DU-145 prostate | HOP-92 NSCLC | LOX IMVI melanoma | MALME-3M melanoma | NCI-H226 lung | NCI-H23 lung | OVCAR-3 ovarian | RXF 393 renal | UACC-62 melanoma | BT-549 breast | SK-MEL-2 melanoma
> 100 µM: all other assays above
